Reference: patent US20030224034A1, “Personal care article and method for inhibiting attachment of yeast to skin” (priority 2002, published 2003)

Tested on: Candida albicans (ATCC 10231)
Test: Visual release protocol: inhibition of C. albicans attachment to skin (tape strips and cyanoacrylate skin pulls), fluorescence microscopy cell count
Format: cell-based
Conditions: for % Inhibition of yeast attachment / 90 View Total (number of yeast cells) / AVG per view (number of yeast cells): 2% farnesol in TSB, 60 minutes at 33 degrees Celsius; for % Inhibition of yeast attachment: 100-((sample # of cells)/(control # of cells)x100); for 90 View Total (number of yeast cells) / AVG per view (number of yeast cells): view = 6000 um^2
Protocol: Candida albicans (ATCC 10231) was used in this study. C. albicans was sub-cultured onto a Sabourads medium fortified with glucose (SAB-Dex) agar plate (Becton Dickinson, Cockeysville, Md.) overnight at 37 degrees Celsius. The following day, 2-3 isolated C. albicans colonies were inoculated into 20 ml SAB-Dex broth and incubated overnight shaken at 220 rpm at 32 degrees Celsius for 18 hours. The broth culture was diluted to 1×10^5 CFU/ml with phosphate buffer (VWR Industries, Batavia, Ill.).
The following protocol was used to measure the inhibition of C. albicans to skin (skin tape strips and cyanoacrylate skin pulls) by farnesol. Skin tape strips were made by pulling D-Squame skin sampling discs (CuDerm Corporation, Dallas, Tex.) four times from adjacent adult male volar forearm sites. Cyanoacrylate pulls were done by putting a small amount of super glue on the skin then placing a glass slide on the wetted surface. The glue was allowed to dry then the slide was removed, pulling off the stratum corneum. The tape strips and glue pulls (both will be referred to as strips in subsequent descriptions) were placed into deep six-well plates (Becton Dickinson, Franklin Lakes, N.J.). The strips were then blocked with 2.0 ml of 5% Bovine Serum Albumin (BSA) (Sigma, St. Louis, Mo.) in PBS buffer (150 mM NaCl, 50 mM Potassium Phosphate (KP), pH 7.4) for 60 minutes at 33 degrees Celsius while shaking at 220 rpm.
Next, each well's fluid was removed and 1.0 ml (10^5 Colony Forming Units (CFU)/ml) C. albicans was added to each strip. Then, 1.0 ml of Trypticase Soy Broth (TSB) [Difco Labs, Detroit, Mich.] containing 2% farnesol (DRAGOCO, Totowa, N.J.) was added to each strip, and the plates incubated at 33 degrees Celsius for 60 minutes. The fluid was aspirated, and the strips were washed 3 times with 3.0 ml PBS. Both sides of each tape strip were washed with a stream of PBS then placed in fresh 6-well plates.
Each strip was fixed by adding 2.0 ml of 2.5% Glutaraldehyde (Sigma Chemical, St. Louis, Mo.) to each of the wells of the 6-well plates for 10 minutes. The tape strips were then washed 3 times with 3.0 ml distilled water and stained by adding 0.5 ml Calcofluor White (Difco, Ann Arbor, Mich.) to the wells for 10 to 15 minutes. The tape strips were again washed 3 times with distilled water and then flooded with 2 ng/ml Nile Red (Sigma Chemical, St. Louis, Mo.) and allowed to air dry.
Once the tape strips air-dried, the yeast cells were enumerated automatically utilizing a Nikon Eclipse TE 300 fluorescent microscope fitted with a DAPI excitation filter and a Triple Pass barrier filter (Tokyo, Japan). The counting procedure was automated (Table 1 and Table 2) through the use of MetaMorph (Universal Imaging, Dowingtown, Pa.) software such that each sample had 30 views. Each image view was a 6000 um^2. The total field of view was approximately 25% of the total tape strip and 75% of the cyanoacrylate pull. The percent inhibition was calculated as follows: 100-((sample # of cells)/(control # of cells)×100). Approximately 10^4 yeast cells bound to a 22-mm diameter D-Squame tape strip under these conditions.

[1] = Cyanoacrylate pull of human volar forearm skin
[2] = Tape strip of human volar forearm skin

CC(C)=CCCC(C)=CCCC(C)=CCO [Farnesol, 3,7,11-trimethyl-2,6,10-dodecatrien-1-ol]
% Inhibition of yeast attachment [1]: 93.8% | % Inhibition of yeast attachment (Cyanoacrylate pull of human volar forearm skin, listed as farnesol): 94% | 90 View Total (number of yeast cells) [1]: 955 | AVG per view (number of yeast cells) [1]: 10.6 | % Inhibition of yeast attachment [2]: 63.8% | % Inhibition of yeast attachment (Tape strip of human volar forearm skin, listed as farnesol): 64% | 90 View Total (number of yeast cells) [2]: 6963 | AVG per view (number of yeast cells) [2]: 77.4 | inhibition of the attachment of yeast to skin (in words) (farnesol at a concentration of 2%): effectively inhibit the attachment of yeast to skin
